Test results: US7232829B2, “Therapeutic compounds and methods” (Regents of the University of Minnesota, priority 2001, dated 2007)
Read-outs that look alike come from different tables or passages of the source.

Columns and labels:
[1] = biological target: T1, rat kappa-opioid receptor (Rattus norvegicus, UniProt P34975); assay: [3H]diprenorphine binding on transiently transfected HEK-293 cells, kappa; conditions: for Ki: [3H]diprenorphine, HEK-293 cells, rat kappa receptor, read-out: Ki κ
T1 construct: expressed in transfected cells; host or cells: HEK-293 (transient, calcium phosphate)
T1 sequence (P34975 whole entry): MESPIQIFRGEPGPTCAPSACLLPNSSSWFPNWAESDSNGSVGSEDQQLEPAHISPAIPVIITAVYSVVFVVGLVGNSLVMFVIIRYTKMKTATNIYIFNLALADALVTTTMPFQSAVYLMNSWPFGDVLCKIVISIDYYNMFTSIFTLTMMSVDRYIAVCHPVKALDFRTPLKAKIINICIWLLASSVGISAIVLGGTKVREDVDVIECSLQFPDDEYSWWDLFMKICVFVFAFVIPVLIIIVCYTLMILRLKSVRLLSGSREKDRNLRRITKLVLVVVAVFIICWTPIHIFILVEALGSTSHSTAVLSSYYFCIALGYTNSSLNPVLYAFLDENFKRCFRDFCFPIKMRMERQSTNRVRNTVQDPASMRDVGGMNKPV
Method: (§1) Receptor Binding. HEK-293 in DMEM (Gibco, BRL) supplemented with 10% Bovine Calf Serum (Hyclone) and 1% penicillin/streptomycin (Gibco, BRL) were maintained at 37° C. and in 5% CO2. Cells were seeded at 16% for 24 hours prior to transfection. Fresh media was added 2 hours prior to transfection. Cells were transfected with plasmid DNA (20 μg/100 mm plate) of either wild type or mutant receptor cDNA using the calcium phosphate precipitation method, see Chen, C.; Okayama, H. High Efficiency Transformation of Mammalian Cells by Plasmid DNA. Mol. Cell. Bio. 1987, 7, 2745–2752. Media was changed 5 hours after transfection. Transfected cells were harvested 48–72 hours after transfection for binding studies.
(§2) Sixty to 72 hours after transfection, HEK cells were washed three times with 25 mM HEPES buffer (pH 7.4) and were resuspended with 8–12 mL of 25 mM HEPES/100 mm plate. Saturation binding assays were performed in triplicate. Nonselective binding was determined using 10 μM naltrexone. Assays were incubated at room temperature for 90 minutes in a total binding volume of 0.5 mL and were terminated by filtration through a Whatman GF/B filter that had been presoaked in 0.25% poly(ethyleneimine) immediately prior to filtration. Filters were washed three times with 4 mL of ice-cold 25 mM HEPES buffer, and scintillation counting was performed with a Beckman 3801 LS Scintillation Counter. Protein concentrations were determined by the method of Bradford, see Bradford, M. M. A Rapid and Selective Method for the Quantitation of Microgram Quantities of Protein utilizing the Principle of Protein-dye Binding. Anal. Biochem. 1976, 72, 248–254. Raw binding data was analyzed with RADLIG and LIGAND (G. A. McPherson, Biosoft, Cambridge, UK). Inhibition constants (Ki) were determined from IC50 values with the Cheng-Prusoff equation, see Cheng, Y. C.; Prusoff, W. H.; Relationship between the inhibition Constant (Ki) and the concentration of inhibitor which causes 50 per cent inhibition (I50) of an enzymatic reaction. Biochem. Pharmacol. 1973, 22, 3099–3108.
(§3) As summarized in Table 2, receptor binding was determined in triplicate using [^3H]diprenorphine on HEK-293 cells that were transiently transfected with plasmids encoding rat kappa-, rat mu-, or mouse delta-opioid receptors.

rat mu-opioid receptor = biological target: T2, rat mu-opioid receptor (Rattus norvegicus, UniProt P33535); assay: [3H]diprenorphine binding on transiently transfected HEK-293 cells, mu; conditions: for Ki: [3H]diprenorphine, HEK-293 cells, rat mu receptor, read-out: Ki μ
T2 construct: expressed in transfected cells; host or cells: HEK-293 (transient, calcium phosphate)
T2 sequence (P33535 whole entry): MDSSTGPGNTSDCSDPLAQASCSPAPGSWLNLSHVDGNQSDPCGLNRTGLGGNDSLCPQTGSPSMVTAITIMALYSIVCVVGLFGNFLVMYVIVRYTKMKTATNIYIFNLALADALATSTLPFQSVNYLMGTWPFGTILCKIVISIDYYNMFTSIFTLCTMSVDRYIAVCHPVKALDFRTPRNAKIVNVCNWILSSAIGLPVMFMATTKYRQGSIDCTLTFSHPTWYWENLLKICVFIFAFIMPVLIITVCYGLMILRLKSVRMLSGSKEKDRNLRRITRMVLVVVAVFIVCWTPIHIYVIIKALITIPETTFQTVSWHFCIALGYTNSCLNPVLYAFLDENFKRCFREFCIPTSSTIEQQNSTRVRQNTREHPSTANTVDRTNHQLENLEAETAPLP
Method: as §1, §2, §3

[2] = biological target: T3, mouse delta-opioid receptor (Mus musculus, UniProt P32300); assay: [3H]diprenorphine binding on transiently transfected HEK-293 cells, delta; conditions: for Ki: [3H]diprenorphine, HEK-293 cells, mouse delta receptor, read-out: Ki δ; for binding to delta receptor (in words): cloned receptors, HEK-293
T3 construct: expressed in transfected cells; host or cells: HEK-293 (transient, calcium phosphate)
T3 sequence (P32300 whole entry): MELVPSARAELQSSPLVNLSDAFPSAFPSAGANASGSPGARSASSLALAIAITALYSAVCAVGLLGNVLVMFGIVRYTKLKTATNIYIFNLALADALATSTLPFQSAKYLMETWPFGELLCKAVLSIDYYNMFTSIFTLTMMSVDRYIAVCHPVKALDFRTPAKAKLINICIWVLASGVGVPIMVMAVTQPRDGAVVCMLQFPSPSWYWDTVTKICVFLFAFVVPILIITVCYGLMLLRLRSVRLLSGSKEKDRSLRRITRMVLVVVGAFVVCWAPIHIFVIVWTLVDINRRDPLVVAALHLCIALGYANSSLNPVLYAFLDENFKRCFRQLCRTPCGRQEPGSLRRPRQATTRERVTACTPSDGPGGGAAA
Method: as §1, §2
As summarized in Table 2, receptor binding was determined in triplicate using [^3H]diprenorphine on HEK-293 cells that were transiently transfected with plasmids encoding rat kappa-, rat mu-, or mouse delta-opioid receptors. […] The results are consistent with the kappa agonist selectivity of compound 4b observed in the GPI. […] Binding to mu receptors was uniformly low for all regioisomers.

kappa opioid receptor = biological target: T4, kappa opioid receptor (Cavia porcellus, UniProt P41144); assay: Antagonism of ethylketazocine (EK) in the electrically stimulated guinea-pig ileal longitudinal muscle (GPI) preparation; assay type: cell-based; conditions: for EK (κ) IC50 ratio: GPI, antagonist tested at 100 nM, mean (n)
T4 construct: tested on the electrically stimulated guinea-pig ileal longitudinal muscle (GPI); from tissue; host or cells: guinea-pig ileal longitudinal muscle
T4 sequence (P41144 whole entry): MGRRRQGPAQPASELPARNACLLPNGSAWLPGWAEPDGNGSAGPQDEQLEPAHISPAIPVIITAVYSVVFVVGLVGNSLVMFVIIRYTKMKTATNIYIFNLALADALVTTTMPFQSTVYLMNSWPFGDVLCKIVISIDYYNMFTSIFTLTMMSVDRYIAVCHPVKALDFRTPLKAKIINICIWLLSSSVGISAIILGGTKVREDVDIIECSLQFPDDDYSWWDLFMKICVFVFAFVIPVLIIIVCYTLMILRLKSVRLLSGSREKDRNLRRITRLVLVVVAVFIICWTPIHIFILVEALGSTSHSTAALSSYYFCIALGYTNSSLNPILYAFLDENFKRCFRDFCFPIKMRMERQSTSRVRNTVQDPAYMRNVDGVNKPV
Method: (§4) Smooth Muscle Preparations. […] All of the compounds were tested on the electrically stimulated guinea-pig ileal longitudinal muscle (GPI), see Rang, H. P. Stimulant Actions of Volatile Anaesthetics on Smooth Muscle. Br. J. Pharmacol. 1964, 22, 356–365, and the mouse vas-deferens (MVD), see Henderson, G.; Hughes, J.; Kosterlitz, H. W. A New Example of a Morphine-Sensitive Neuroeffector Junction: Adrenergic Transmission in the Mouse vas Deferens. Br. J. Pharmacol. 1972, 46, 764–766, preparations for their agonist and antagonist activities as previously described, see (a) Portoghese, P. S.; Lipkowski, A. W.; Takemori, A. E. Binaltorphimine and Nor-binaltorphimine, Potent and Selective Kappa-Opioid Receptor Antagonists. Life Sci. 1987, 40, 1287–1292. (b) Portoghese, P. S.; Takemori, A. E. TENA. A Selective Kappa Opioid Receptor Antagonist. Life Sci. 1985, 36, 801–805. […] Morphine (M), (−)-ethylketazocine (EK), and [D-Ala^2,D-Leu^5]enkephalin (DADLE) were employed as mu, kappa and delta selective agonists, respectively. Morphine and EK were used in the GPI, and DADLE was employed in the MVD studies. Concentration-response curves were obtained in the absence (control) and presence of the antagonist in the same preparation. Antagonist potency is expressed as an IC50 ratio, that is the IC50 of the agonist in the presence of antagonist divided by the control IC50 of the agonist in the same preparation, and as a Ke value derived from the relationship, Ke=[antagonist]/[…].

delta opioid receptor = biological target: T5, delta opioid receptor (Mus musculus, UniProt P32300); assay: Antagonism of DADLE in the mouse vas-deferens (MVD) preparation; assay type: cell-based; conditions: for DADLE (δ) IC50 ratio: MVD, antagonist tested at 100 nM, mean ± SEM (n); for delta opioid receptor antagonist activity (in words): smooth muscle preparations
T5 construct: and the mouse vas-deferens (MVD); from tissue; host or cells: mouse vas deferens
T5 sequence (P32300 whole entry): as the sequence (P32300 whole entry) above
Method: as §4

mu opioid receptor = assay: Antagonism of morphine (M) in the electrically stimulated guinea-pig ileal longitudinal muscle (GPI) preparation; assay type: cell-based; conditions: for M (μ) IC50 ratio: GPI, antagonist tested at 100 nM, mean ± SEM (n); for mu opioid receptor antagonist activity (in words): smooth muscle preparations; for M (μ) Ke: GPI preparation, agonist morphine, Ke derived from IC50 ratio
Method: as §4

mouse vas-deferens (MVD) = assay: Agonist activity in the MVD assay; assay type: cell-based; conditions: at 1 μM
Method: as §4, with “Concentration-response curves were obtained in the absence (control) and presence of the antagonist in the same preparation.” left out

[3] = tested on: guinea-pig ileal longitudinal muscle (GPI); assay: Agonist activity in the GPI assay (concentration-response compared to morphine, reversal by antagonists); assay type: cell-based
Method: as §4

With `N=C(N)Nc1ccc2[nH]c3c(c2c1)C[C@@]1(O)[C@H]2Cc4ccc(O)c5c4[C@@]1(CCN2CC1CC1)[C@H]3O5` [Compound 3, 5′-Guanidino-17-(cyclopropylmethyl)-6,7-didehydro-4,5α-epoxy-3,14-hydroxyindolo-[2′,3′:6,7]morphinian, reference compound] the Ki [1] was 0.14 ± 0.03 nM, the “affinity for the kappa receptor relative to mu and delta receptors” value ([1]; cloned receptors, HEK-293) was “greater than two orders of magnitude” and the Ki (rat mu-opioid receptor) was 99.7 ± 8.7 nM. For the same molecule, the Ki [2] was 24.8 ± 11.3 nM, the Kb (kappa opioid receptor) was 0.16 nM and the “kappa antagonist potency relative to norBNI 1” value (kappa opioid receptor; smooth muscle preparations) was “approximately four-fold”. The “kappa opioid receptor antagonist activity (in words)” value (kappa opioid receptor; smooth muscle preparations) was “highly potent and selective kappa opioid receptor antagonist”.

`N=C(N)Nc1cccc2[nH]c3c(c12)C[C@@]1(O)[C@H]2Cc4ccc(O)c5c4[C@@]1(CCN2CC1CC1)[C@H]3O5` [Compound 4a, 4′-Guanidino-17-(cyclopropylmethyl)-6,7-didehydro-4,5α-epoxy-3,14-hydroxyindolo-[2′,3′:6,7]morphinian] was tested, and the “binding to kappa receptor (in words)” value ([1]; cloned receptors, HEK-293) was “eliminated binding”, the “binding to mu receptor (in words)” value (rat mu-opioid receptor; cloned receptors, HEK-293) was “eliminated binding” and the “binding to delta receptor (in words)” value [2] was “eliminated binding”. For the same molecule, the Kb (delta opioid receptor) was 263 nM, the “DADLE (δ) IC50 ratio” value (delta opioid receptor) was 1.4 (2) and the “delta opioid receptor antagonist activity (in words)” value (delta opioid receptor) was “virtually inactive”. The Kb (kappa opioid receptor) was 80 nM, the “EK (κ) IC50 ratio” value (kappa opioid receptor) was 2.3 (2) and the “kappa opioid receptor antagonist activity (in words)” value (kappa opioid receptor; smooth muscle preparations) was “virtually inactive”. For the same molecule, the “M (μ) IC50 ratio” value (mu opioid receptor) was 0.34 (2) and the “mu opioid receptor antagonist activity (in words)” value (mu opioid receptor) was “virtually inactive”.

`Oc1ccc2c3c1O[C@H]1c4[nH]c5c(c4C[C@@]4(O)[C@@H](C2)N(CC2CC2)CC[C@]314)C[C@@]1(O)[C@H]2Cc3ccc(O)c4c3[C@@]1(CCN2CC1CC1)[C@H]5O4` [Compound 1, Norbinaltorphimine, reference compound] was tested, and the Kb (kappa opioid receptor; GPI preparation, agonist ethylketazocine, Ke derived from IC50 ratio, read-out: EK (κ) Ke) was 0.41 nM and the “M (μ) Ke” value (mu opioid receptor) was 12.5 nM.

For `N=C(N)Nc1ccc2c3c([nH]c2c1)[C@@H]1Oc2c(O)ccc4c2[C@@]12CCN(CC1CC1)[C@H](C4)[C@]2(O)C3` [Compound 4b, 6′-Guanidino-17-(cyclopropylmethyl)-6,7-didehydro-4,5α-epoxy-3,14-hydroxyindolo-[2′,3′:6,7]morphinian], the Ki [1] was 1.15 ± 0.39 nM, the “affinity for kappa receptors relative to GNTI” value ([1]; cloned receptors, HEK-293) was “one-tenth” and the “binding to kappa receptor (in words)” value ([1]; cloned receptors, HEK-293) was “kappa-selective”. The “agonist activity in MVD assay” value (mouse vas-deferens (MVD)) was “inactive as an agonist”, the Ki (rat mu-opioid receptor) was 81.8 ± 20.7 nM and the Ki [2] was 20.3 ± 6.7 nM. For the same molecule, the “agonist potency relative to that of morphine” value ([3]; GPI assay, FIG. 5) was 51 fold, the “agonist activity and selectivity (in words)” value ([3]; GPI assay, with MVD results) was “kappa-selective agonist” and the “reversal of the agonist effect by naltrexone” value ([3]; GPI, naltrexone 500 nM) was “only partially reversed”. The “reversal of the agonist effect by norBNI” value ([3]; GPI, norBNI 20 nM) was “completely reversed”.

`N=C(N)Nc1cccc2c3c([nH]c12)[C@@H]1Oc2c(O)ccc4c2[C@@]12CCN(CC1CC1)[C@H](C4)[C@]2(O)C3` [Compound 4c, 7′-Guanidino-17-(cyclopropylmethyl)-6,7-didehydro-4,5α-epoxy-3,14-hydroxyindolo-[2′,3′:6,7]morphinian] gave a Ki [1] of 69.1 ± 25 nM, a Ki (rat mu-opioid receptor) of 181 ± 20 nM and a Ki [2] of 2.75 ± 0.48 nM. For the same molecule, the “binding to delta receptor (in words)” value [2] was “delta selectivity”, the Kb (delta opioid receptor) was 0.96 nM and the “DADLE (δ) IC50 ratio” value (delta opioid receptor) was 105 ± 30 (4). For the same molecule, the “delta opioid receptor antagonist activity (in words)” value (delta opioid receptor) was “potent delta opioid receptor antagonist”, the Kb (kappa opioid receptor) was 100 nM and the “EK (κ) IC50 ratio” value (kappa opioid receptor) was 2.0 (2). For the same molecule, the “kappa opioid receptor antagonist activity (in words)” value (kappa opioid receptor; smooth muscle preparations) was “inactive”, the “M (μ) Ke” value (mu opioid receptor) was 238 nM and the “M (μ) IC50 ratio” value (mu opioid receptor) was 1.4 ± 0.9 (3). The “mu opioid receptor antagonist activity (in words)” value (mu opioid receptor) was “inactive”.
